Source: patent publication US20250154089A1, “METHODS FOR PREPARING OXYRESVERATROL AND DERIVATIVES THEREOF” (Caliway Biopharmaceuticals Co., Ltd., priority 2023, published 2025)

Tested on: melanin production induced by α-MSH
Assay: Inhibition of melanin production induced by α-MSH
Format: cell-based
Settings: for Melanin content (%), Mean: α-MSH 0.1 μM 24 hours + TA treat 24 hours, 0.2% DMSO, α-MSH group = 100.0
From the text: This example explores the bioactivity of the synthesized oxyresveratrol compound in inhibiting melanin production as relative to commercial oxyresveratrol extracted from plant sources.

SMILES | Inhibition of melanin production induced by α-MSH (in words) (32 and 128 μM) | Melanin content (%), Mean (TA conc. 32 μM) [%] | Melanin content (%), Mean (TA conc. 128 μM) [%] | Inhibitory activity on melanin production compared with the commercial material (in words) (e.g., at 128 μM)
Oc1cc(O)cc(/C=C/c2ccc(O)cc2O)c1 [Commercial, oxyresveratrol] | inhibited melanin production | 77.4 | 45.5 | –
Oc1cc(O)cc(/C=C/c2ccc(O)cc2O)c1 [Synthetic, oxyresveratrol] | – | 75.7 | 38.5 | greater inhibitory activity
